Several values for one entry are separate records, joined by “and”; a condition that tells them apart may be missing. Identical values can stand only once.
Assays:
TwinStrep-GST-HDAC10 = molecular target: T1, TwinStrep-GST-HDAC10 (Homo sapiens, UniProt Q969S8); experiment: HDAC10 TR-FRET assay; format: binding; details: sheet S2e
T1 sequence (Q969S8 1-669): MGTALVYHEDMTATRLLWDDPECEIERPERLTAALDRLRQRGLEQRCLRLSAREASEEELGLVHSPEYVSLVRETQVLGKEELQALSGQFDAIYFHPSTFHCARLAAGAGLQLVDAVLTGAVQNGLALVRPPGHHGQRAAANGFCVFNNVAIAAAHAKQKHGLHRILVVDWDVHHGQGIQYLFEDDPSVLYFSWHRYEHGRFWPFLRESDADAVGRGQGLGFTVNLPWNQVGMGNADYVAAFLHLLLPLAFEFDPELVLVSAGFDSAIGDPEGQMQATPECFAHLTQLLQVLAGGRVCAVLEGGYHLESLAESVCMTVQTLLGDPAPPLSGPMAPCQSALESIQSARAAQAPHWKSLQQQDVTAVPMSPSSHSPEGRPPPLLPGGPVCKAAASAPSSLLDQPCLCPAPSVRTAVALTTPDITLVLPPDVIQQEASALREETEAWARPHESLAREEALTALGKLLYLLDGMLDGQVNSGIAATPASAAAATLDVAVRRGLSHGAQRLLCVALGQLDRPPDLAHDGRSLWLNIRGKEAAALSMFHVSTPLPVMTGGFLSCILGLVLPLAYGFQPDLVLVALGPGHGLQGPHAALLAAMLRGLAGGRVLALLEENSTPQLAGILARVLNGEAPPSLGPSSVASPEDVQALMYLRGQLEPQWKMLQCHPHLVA
Experimental: (§1) To validate the inhibition of HDACs by LA and LM and elaborate on the structure-activity relationship (SAR) of enantiomers as well as oxidized versus reduced forms of the molecules, we performed enzyme activity assays for recombinant HDAC1,2,3,6,8 as well as FRET-based binding assay for recombinant HDAC10.
Inhibitors with a D300e Digital Dispenser (Tecan). After drug dosing to the premixed assay reagents in buffer, plates were shaken (800 rpm orbital shaker, 30 s), centrifuged (300g, 1 min), and incubated at RT in the dark for 90 min. TR-FRET was measured with a CLARIOstar (BMG Labtech) plate reader, equipped with TR-FRET filters.

A549 cells = experiment: Arsenite-induced stress granule formation (G3BP1 immunofluorescence); format: cell-based; details: for arsenite-induced stress granule quantification (G3BP1), Mean / arsenite-induced stress granule quantification (G3BP1), Median / arsenite-induced stress granule quantification (G3BP1), individual values: sheet 4b; for arsenite-induced stress granule quantification (G3BP1), individual values: single data points
Experimental: The acetylation status of proteins can affect their macromolecular associations and the tendency of proteins to phase-separate into liquid condensates such as stress granules. […] After pre-incubation of cells with the compound, stress granule formation was induced using 30 min of arsenite treatment (1 mM). After treatment, cells were fixed for immunofluorescence detection of stress granules via the common stress granule marker protein G3BP1[21].
0.03 × 10^6 A549 cells were seeded at 4-chamber slides (Thermo, Nunc) and cultured at 37 °C overnight. Cells were treated with HDAC inhibitor SAHA and Lipoic acid or LM for 6 h, followed by 1 mM Arsenite for 30 min. Cells were fixed by 4% PFA and permeabilized by 0.5% Triton X-100/PBS. 10% Goat serum in PBS was used for blocking. After manually selecting an area with cell confluency of 50–80%, 16 pictures were taken randomly around the central point (ZEISS software in-built function). Stress granule marker G3BP1 (Aviva Systems Biology, ARP37713_T100) was visualized and quantified by ImageJ. Statistical analysis was performed with GraphPad Prism.

HDAC1 = HDAC1 (Homo sapiens, UniProt Q13547); experiment: HDAC-Glo assay; format: biochemical; parameters: purchased BPS Bioscience 50051; details: 0.5 M TCEP, listed as SAHA
HDAC1, sequence (Q13547 whole entry): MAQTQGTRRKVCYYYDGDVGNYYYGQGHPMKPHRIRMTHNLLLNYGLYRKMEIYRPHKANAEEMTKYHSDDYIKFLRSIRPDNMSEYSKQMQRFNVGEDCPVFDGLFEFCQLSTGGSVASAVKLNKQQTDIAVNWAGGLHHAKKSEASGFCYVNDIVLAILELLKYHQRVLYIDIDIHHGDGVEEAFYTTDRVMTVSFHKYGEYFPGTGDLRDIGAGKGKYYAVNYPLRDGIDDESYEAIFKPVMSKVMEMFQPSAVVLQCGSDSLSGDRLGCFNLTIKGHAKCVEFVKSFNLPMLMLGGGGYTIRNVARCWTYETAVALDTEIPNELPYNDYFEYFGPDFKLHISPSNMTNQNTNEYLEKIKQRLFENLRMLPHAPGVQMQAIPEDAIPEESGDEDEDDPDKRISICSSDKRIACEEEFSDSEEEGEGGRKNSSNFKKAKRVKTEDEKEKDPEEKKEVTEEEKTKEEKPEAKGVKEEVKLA
Experimental: as §1
The experiments were performed according to ref. [48]. […] Drug dosing was performed with a D300e Digital Dispenser (Tecan). HDACs (7 ng/mL for HDAC1, 25 ng/mL for HDAC2, 200 ng/mL for HDAC3/Ncor2 complex, 100 ng/mL for HDAC6, 200 ng/mL for HDAC8) and inhibitors were incubated together at room temperature (RT) for 30 min. After the addition of the HDAC-Glo™ I/II reagent, plates were shaken (800 rpm orbital shaker, 30 s), centrifuged (300 g, 1 min), and incubated at RT for 30 min. Luminescence was detected with a CLARIOstar (BMG Labtech) plate reader.

O=C(O)CCCCC(S)CCS (stereo not shown) [R/S Lipoic Acid Reduced]
HDAC10 TR-FRET relative signal (TwinStrep-GST-HDAC10; log conc -5.74088): 12.9805 and 13.6219 and 13.4323
HDAC10 TR-FRET relative signal (TwinStrep-GST-HDAC10; log conc -6.32148): 35.3961 and 30.9531 and 27.2587
HDAC10 TR-FRET relative signal (TwinStrep-GST-HDAC10; log conc -6.92082): 58.0202 and 63.7897 and 66.3493
HDAC10 TR-FRET relative signal (TwinStrep-GST-HDAC10; log conc -7.57349): 84.4678 and 78.5713 and 85.276
HDAC10 TR-FRET relative signal (TwinStrep-GST-HDAC10; log conc -8.06198): 102.777 and 109.857 and 101.86

O=C(O)CCCCC1CCSS1 (stereo not shown) [R/S Lipoic Acid]
HDAC10 TR-FRET relative signal (TwinStrep-GST-HDAC10; log conc -4.58031): 16.6621 and 17.5526 and 13.058
HDAC10 TR-FRET relative signal (TwinStrep-GST-HDAC10; log conc -5.16059): 24.6813 and 29.9295 and 28.3509
HDAC10 TR-FRET relative signal (TwinStrep-GST-HDAC10; log conc -5.74088): 52.1664 and 54.0588 and 51.0514
HDAC10 TR-FRET relative signal (TwinStrep-GST-HDAC10; log conc -6.32148): 88.5435 and 84.6455 and 96.7603
HDAC10 TR-FRET relative signal (TwinStrep-GST-HDAC10; log conc -6.92082): 91.5597 and 91.2649 and 101.82
HDAC10 TR-FRET relative signal (TwinStrep-GST-HDAC10; log conc -7.57349): 99.4261 and 99.6664 and 105.18
HDAC10 TR-FRET relative signal (TwinStrep-GST-HDAC10; log conc -8.06198): 106.58 and 110.725 and 95.693

NC(=O)CCCCC1CCSS1 (stereo not shown) [R/S Lipoic Amide]
HDAC10 TR-FRET relative signal (TwinStrep-GST-HDAC10; log conc -4): 8.95 and 4.904 and 5.819
HDAC10 TR-FRET relative signal (TwinStrep-GST-HDAC10; log conc -6.32148): 8.47 and 4.461 and 8.704
HDAC10 TR-FRET relative signal (TwinStrep-GST-HDAC10; log conc -7.57349): 45.0477 and 41.2172 and 50.7784
HDAC10 TR-FRET relative signal (TwinStrep-GST-HDAC10; log conc -8.06198): 82.499 and 87.6271 and 84.2057

O=C(CCCCCCC(=O)Nc1ccccc1)NO [Vorinostat]
arsenite-induced stress granule quantification (G3BP1), Mean (A549 cells; SAHA 5 uM): 45.6514
arsenite-induced stress granule quantification (G3BP1), Median (A549 cells; SAHA 5 uM): 49.1176
arsenite-induced stress granule quantification (G3BP1), individual values (A549 cells; SAHA 5 uM): 49.2857 and 50.3 and 41.875 and 50.4286 and 49.1176 and 51.2222 and 60.7 and 38.0833 and 56.9 and 30 and 49.3333 and 45.8824 and 50.6667 and 31.4 and 46 and 38.6364 and 52.8182 and 41.7273 and 33
arsenite-induced stress granule quantification (G3BP1), Mean (A549 cells; SAHA 10 uM): 35.2798
arsenite-induced stress granule quantification (G3BP1), Median (A549 cells; SAHA 10 uM): 36
arsenite-induced stress granule quantification (G3BP1), individual values (A549 cells; SAHA 10 uM): 44.5 and 23.5 and 22.5 and 18.5 and 15.6364 and 31 and 37.5882 and 55.1667 and 42.2 and 33.2 and 29.6923 and 41.5 and 52.75 and 25.3333 and 40.5 and 51.1667 and 36 and 30.8333 and 38.75
effect on stress granule numbers per cell (A549 cells; pre-incubation 6 h, then 1 mM arsenite 30 min): dose-dependent reduction of stress granule numbers per cell
raw luminescence signal, HDAC1 inhibition (HDAC1; log10 M -4.30103, 3 technical replicates): 1951 and 1963 and 1822
raw luminescence signal, HDAC1 inhibition (HDAC1; log10 M -5.12407, 3 technical replicates): 3958 and 4231 and 3895
raw luminescence signal, HDAC1 inhibition (HDAC1; log10 M -5.94692, 3 technical replicates): 19908 and 20969 and 19762
raw luminescence signal, HDAC1 inhibition (HDAC1; log10 M -6.76955, 3 technical replicates): 88503 and 91916 and 93868
raw luminescence signal, HDAC1 inhibition (HDAC1; log10 M -7.59346, 3 technical replicates): 248915 and 245579 and 256063
raw luminescence signal, HDAC1 inhibition (HDAC1; log10 M -8.41567, 3 technical replicates): 337631 and 344047 and 344507
raw luminescence signal, HDAC1 inhibition (HDAC1; log10 M -9.27327, 3 technical replicates): 375556 and 372678 and 377396
raw luminescence signal, HDAC1 inhibition (HDAC1; log10 M -10.062, 3 technical replicates): 346292 and 360694 and 357566
